# What was measured:
# [1] = molecular target: T1, UGT71E5 (Carthamus tinctorius, UniProt A0A1P8C3B1); experiment: HPLC-MS conversion; format: biochemical; details: 0.4 mmol/L acceptor, 0.8 mmol/L UDP-Glc, pH 7.4
# T1 sequence (A0A1P8C3B1 1-480): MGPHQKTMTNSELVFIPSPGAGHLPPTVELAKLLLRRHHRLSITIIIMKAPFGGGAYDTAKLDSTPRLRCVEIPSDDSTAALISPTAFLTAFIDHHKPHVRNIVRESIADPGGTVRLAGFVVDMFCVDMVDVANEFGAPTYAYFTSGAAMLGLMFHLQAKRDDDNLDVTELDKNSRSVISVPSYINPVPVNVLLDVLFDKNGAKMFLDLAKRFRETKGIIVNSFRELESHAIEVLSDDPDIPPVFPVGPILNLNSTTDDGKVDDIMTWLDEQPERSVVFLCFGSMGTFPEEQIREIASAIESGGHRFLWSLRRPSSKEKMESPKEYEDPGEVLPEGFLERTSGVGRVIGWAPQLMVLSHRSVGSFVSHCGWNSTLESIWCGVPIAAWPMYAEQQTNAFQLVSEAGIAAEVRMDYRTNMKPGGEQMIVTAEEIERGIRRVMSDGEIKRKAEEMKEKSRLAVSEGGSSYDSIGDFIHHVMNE
# [2] = tested on: DoBBS8; experiment: HPLC quantification of dihydroresveratrol, nonlinear regression; format: biochemical, Dendrobium officinale; details: malonyl-CoA 2.0 mmol/L fixed; 30 °C, 30 min
Compound,conversion rate [1],Km [2]
"Oc1ccc(CCc2cc(O)cc(O)c2)cc1 [compound 1, dihydro-resveratrol]",94%,–
CC(C)(COP(=O)(O)OP(=O)(O)OC[C@H]1O[C@@H](n2cnc3c(N)ncnc32)[C@H](O)[C@@H]1OP(=O)(O)O)[C@@H](O)C(=O)NCCC(=O)NCCSC(=O)CCc1ccc(O)cc1 [p-hydroxyphenylpropionyl-CoA],–,61.8 µM

# Reference: article PMC10149896 (Acta Pharmaceutica Sinica. B, 2022)
